# Measured values as given in patent publication US6310095A, “Inhibitors of protein isoprenyl transferases” (University of Pittsburgh, priority 1998, dated 2001).
# Where a name gives a salt, the structure may show the parent alone.
# Molecular target: T1, protein farnesyltransferase (Rattus norvegicus, UniProt Q02293+Q04631)
# T1 construct: Rat brain protein farnesyltransferase activity is measured; from tissue; host or cells: rat brain; purified according to Reiss et al., Cell 62:81-88 (1990), steps one through three
# Assay: in vitro inhibition of protein farnesyltransferase (scintillation proximity assay, biotin-K Ras B fragment)
# Assay type: biochemical
# Settings: at 1 × 10^-5 M
# How it was run: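 Rat brain enzyme, purified through three steps, in a scintillation proximity assay kit with biotin-K Ras B fragment substrate at 0.1 mM final. Value is % inhibition of farnesylation.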
row,Structure (SMILES),inhibition at 10 µM
1,CSCC[C@H](NC(=O)c1ccc(CNc2cc(C(C)(C)C)[nH]n2)cc1-c1ccccc1)C(=O)O [Example 381],79%
2,CSCC[C@H](NC(=O)c1ccc(NC(=O)Cc2ccccc2[N+](=O)[O-])cc1-c1ccccc1)C(=O)O [Example 757],58%
3,COc1ccc(Br)c(C(=O)Nc2ccc(C(=O)N[C@@H](CCSC)C(=O)O)c(-c3ccccc3)c2)c1 [Example 754],40%

# Same assay, conditions: at 1 × 10^-6 M
row,Structure (SMILES),% inhibition of farnesyltransferase
1,CSCC[C@H](NC(=O)c1ccc(CCCc2ccc3ccccc3c2)cc1-c1ccccc1C)C(=O)[O-].[Li+] [Example 470],95%
2,CSCC[C@H](NC(=O)c1ccc(C=Cc2ccccc2Oc2ccccc2)cc1-c1ccccc1C)C(=O)[O-].[Li+] [Example 453],90%
3,CSCC[C@H](NC(=O)c1ccc(OCCCOc2ccccc2)cc1-c1ccccc1C)C(=O)O [Example 566],98%
4,CSCC[C@H](NC(=O)c1ccc(COC2CCN(Cc3ccccc3)CC2)cc1-c1ccccc1C)C(=O)O [Example 807],90%
5,CSCC[C@H](NC(=O)c1ccc(CN(C2CC2)C(C)(C)CC2CCCCC2)cc1-c1ccccc1C)C(=O)O [Example 316],63%
6,CSCC[C@H](NC(=O)c1ccc(COC2(c3ccccc3)CCN(C(=O)OC(C)(C)C)CC2)cc1-c1ccccc1C)C(=O)[O-].[Li+] [Example 816],87%
7,CSCC[C@H](NC(=O)c1ccc(CN(C(C)C)C2(CC3CCCCC3)CC2)cc1-c1ccccc1C)C(=O)O [Example 326],91%
8,CSCC[C@H](NC(=O)c1ccc(CC(Cc2ccccc2)c2ccccc2)cc1-c1ccccc1C)C(=O)[O-].[Li+] (some centres unmarked) [Example 572],91%
9,CSCC[C@H](NC(=O)c1ccc(COCc2ccsc2)cc1-c1ccccc1C)C(=O)[O-].[Li+] [Example 274],94%
10,CCCCN(C)N(CCC1CCCCC1)Cc1ccc(C(=O)N[C@@H](CCS(C)(=O)=O)C(=O)O)c(-c2ccccc2C)c1 [Example 300],22%
11,CSCC[C@H](NC(=O)c1ccc(CCc2cccc(-c3ccccc3)c2)cc1-c1ccccc1C)C(=O)[O-].[Li+] [Example 793],94%
12,CSCC[C@H](NC(=O)c1ccc(COCc2cccs2)cc1-c1ccccc1C)C(=O)[O-].[Li+] [Example 273],96%
13,CSCC[C@H](NC(=O)c1ccc(OC/C=C/c2ccccc2)cc1-c1ccccc1C)C(=O)O [Example 560],91%
14,CSCC[C@H](NC(=O)c1ccc(/C=C/c2cncnc2)cc1-c1ccccc1C)C(=O)O [Example 494],96%
15,CSCC[C@H](NC(=O)c1ccc(/C=C/c2ccccc2)cc1-c1ccccc1C)C(=O)O [Example 791],53%

# Same assay, conditions: at 1 × 10^-6 M; read-out: % inhibition of farnesyltransferase
row,Structure (SMILES),inhibition at 1 µM
1,"CSCC[C@H](NC(=O)c1ccc(CN(CCO)Cc2ccccc2)cc1-c1ccccc1)C(=O)O [Example 515, N-[4-N-(2-hydroxyethyl)-N-benzylaminomethyl-2-phenylbenzoyl]methionine lithium salt]",72%
2,"CSCC[C@H](NC(=O)c1ccc(NC(=O)C2CCC(=O)N2)cc1-c1ccccc1)C(=O)O (some centres unmarked) [Example 202, [4-(2-pyrrolidinone-5-ylcarbonylamino)-2-phenylbenzoyl]methionine]",31%
3,"COC(=O)[C@H](CCSC)NC(=O)c1ccc(NC(=O)[C@@H]2CSCN2)cc1-c1ccccc1 [Example 164, [4-((R)-thiazolidin-4-ylcarbonyl)amino-2-phenylbenzoyl]methionine methyl ester hydrochloride]",92%

# Same assay, conditions: at 1 × 10^-7 M
row,Structure (SMILES),% inhibition of farnesyltransferase
1,CSCC[C@H](NC(=O)c1ccc(CN2CCC[C@@H]2COCc2ccccc2)cc1-c1ccccc1C)C(=O)O [Example 993],90%
2,CSCC[C@H](NC(=O)c1ccc(COCc2ccc(C(C)C)cc2)cc1-c1ccccc1C)C(=O)[O-].[Li+] [Example 940],92%
3,CSCC[C@H](NC(=O)c1ccc(COCc2ccc(-c3cccc([N+](=O)[O-])c3)o2)cc1-c1ccccc1C)C(=O)[O-].[Li+] [Example 440],92%
4,CSCC[C@H](NC(=O)c1ccc(/C=C/c2ccc(Oc3ccccc3[N+](=O)[O-])cc2)cc1-c1ccccc1C)C(=O)O [Example 856],97%
5,CSCC[C@H](NC(=O)c1ccc(CSc2nc3cc(C)ccc3[nH]2)cc1-c1ccccc1C)C(=O)O [Example 733],60%
6,CSCC[C@H](NC(=O)c1ccc(CCc2ccccc2Oc2ccccc2)cc1-c1ccccc1C)C(=O)[O-].[Li+] [Example 455],83%
7,CSCC[C@H](NC(=O)c1ccc(CSc2nnc[nH]2)cc1-c1ccccc1C)C(=O)O [Example 735],96%
8,CSCC[C@H](NC(=O)c1ccc(CSC2=NCCS2)cc1-c1ccccc1C)C(=O)O [Example 730],96%
9,CSCC[C@H](NC(=O)c1ccc(COCc2ccc(-c3cccc(C(F)(F)F)c3)o2)cc1-c1ccccc1C)C(=O)[O-].[Li+] [Example 441],91%
10,CSCC[C@H](NC(=O)c1ccc(CSc2ccc(C)cc2C)cc1-c1ccccc1C)C(=O)O [Example 741],89%
11,CCCCC(OCc1ccc(C(=O)N[C@@H](CCSC)C(=O)[O-])c(-c2ccccc2C)c1)c1ccco1.[Li+] (some centres unmarked) [Example 825],79%

# Same assay, conditions: at 1 × 10^-7 M; read-out: % inhibition of farnesyltransferase
row,Structure (SMILES),inhibition at 0.1 µM
1,"CSCC[C@H](NC(=O)c1ccc(CN(Cc2ccccc2)Cc2nccs2)cc1-c1ccccc1C)C(=O)O [Example 548, N-[4-N-benzyl-N-(thiazol-2-ylmethyl)aminomethyl-2-(2-methylphenyl)benzoyl]methionine]",86%
2,"CCSC[C@H](CC1CCCCC1)N(Cc1ccc(C(=O)N[C@@H](CCSC)C(=O)O)c(-c2ccccc2C)c1)C(C)=O [Example 947, N-[4-N-acetyl-N-(3-Cyclohexyl-1-ethylthiopropan-2-yl)aminomethyl-2-(2-methylphenyl)-benzoyl]methionine]",79%
3,"CCSC[C@H](CC1CCCCC1)N(Cc1ccc(C(=O)N[C@@H](CCSC)C(=O)O)c(-c2ccccc2C)c1)C(=O)OC(C)(C)C [Example 948, N-[4-N-t-Butyloxycarbonyl-N-(3-cyclohexyl-1-ethylthiopropan-2-yl)aminomethyl-2-(2-methylphenyl)benzoyl]methionine]",75%
4,CSCC[C@H](NC(=O)c1ccc(CN(CCC23CC4CC(CC(C4)C2)C3)c2ccccc2)cc1-c1ccccc1C)C(=O)O [Example 511],82%
5,"CCCCS(=O)(=O)N(Cc1ccc(C(=O)N[C@@H](CCSC)C(=O)O)c(-c2ccccc2C)c1)[C@H](CSCC)CC1CCCCC1 [Example 950, N-[4-N-Butanesulfoyl-N-(3-Cyclohexyl-1-ethylthiopropan-2-yl)aminomethyl-2-(2-methylphenyl)-benzoyl]methionine]",71%

# Same assay, conditions: at 1 × 10^-8 M
row,Structure (SMILES),% inhibition of farnesyltransferase
1,CSCC[C@H](NC(=O)c1ccc(COCCc2ccccc2Cl)cc1-c1ccccc1C)C(=O)[O-].[Li+] [Example 588],68%
2,CSCC[C@H](NC(=O)c1ccc(CON=C(Cc2ccccc2)Cc2ccccc2)cc1-c1ccccc1C)C(=O)O [Example 888],86%
3,CCCCC(OCc1ccc(C(=O)N[C@@H](CCSC)C(=O)[O-])c(-c2ccccc2C)c1)c1ccc(-c2ccc(Cl)cc2)o1.[Li+] (some centres unmarked) [Example 826],92%
4,CCCCC(Cc1ccccc1Cl)OCc1ccc(C(=O)N[C@@H](CCSC)C(=O)O)c(-c2ccccc2C)c1 (some centres unmarked) [Example 943],79%

# Same assay, conditions: at 1 × 10^-8 M; read-out: % inhibition of farnesyltransferase
row,Structure (SMILES),inhibition at 0.01 µM
1,"CSCC[C@H](NC(=O)c1ccc(CN(CCC2CCCCC2)C2CC2)cc1-c1ccccc1C)C(=O)O [Example 880, N-[4-(N-2-Cyclohexylethyl-N-cyclopropylaminomethyl)-2-(2-methylphenyl)benzoyl]methionine]",95%
2,"CSCC[C@H](NC(=O)c1ccc(CN(Cc2ccccc2)c2ccc(C(F)(F)F)cc2)cc1-c1ccccc1C)C(=O)O [Example 853, N-[4-(N-benzyl-N-(4-trifluoromethylphenyl)aminomethvl)-2-(2-methylphenyl)benzoyl]methionine lithium salt]",85%

# Same assay, conditions: read-out: % inhibition of farnesyltransferase
row,Structure (SMILES),inhibition at 0.1 µM
1,"CSCC[C@H](NC(=O)c1ccc(CNC(CC2CCCCC2)C2CCCCC2)cc1-c1ccccc1C)C(=O)O (some centres unmarked) [Example 616, N-[4-(1,2-dicyclohexylethylaminomethyl)-2-(2-methylphenyl)benzoyl]methionine Lithium Salt]",95%
